Reference: patent publication US10351525B2, “Beta lactamase inhibitors” (Oxford University Innovation Limited, priority 2014, dated 2019)

Assays:
hGlyoxylase II = molecular target: T1, hGlyoxylase II (Homo sapiens, UniProt Q16775); assay: hHAGH (human Glyoxylase II) assay; assay type: biochemical; on Inhibition verdict: key: N.I.—not inhibited
T1 construct: purchased R&D Systems 5944-GO
Description: To investigate the selectivity of ML302/ML302F for bacterial MBLs, activity was tested against TEM-1 (a Class A SBL), PBP-5 (penicillin-binding protein 5 or dacA) and PBP-6 (penicillin-binding protein 6, or dacC) from E. coli, hHAT (human histone acetyltransferase) and hHDAC (human histone deacetylase). TEM-1, PBP-5 and -6 and hHAT are known to be inhibited by rhodanines. Selectively against hACE-2 (Angiotensin converting enzyme 2) and hHAGH (Hydroxyacylglutathione hydrolase, human Glyoxylase II) was also tested.
The inhibition analyses for human histone acetyltransferases (HAT), HDAC hHDAC (human histone deacetylase), hACE-2 (Angiotensin converting enzyme 2) and hHAGH (Hydroxyacylglutathione hydrolase, human Glyoxylase II) were performed using the commercially available HAT Assay Kit (Active Motif, catalogue No. 56100 (2009)), hHDAC (Active Motif, catalogue No. 56200 (2013)), hACE-2 (ACE-2 (R&D Systems) and hHAGH ((R&D Systems).
• Assay Buffer: 50 mM Tris, 250 mM NaCl, pH 7.5 • Recombinant Human Glyoxalase II (rhGlyoxalase II) (Catalog #5944-GO) • Substrate: S-Lactoylglutathione (Sigma, Catalog # L7140), 100 mM stock in deionized water • 5, 5′-dithiobis(2-nitrobenzoic acid) (DTNB) (Sigma, Catalog # D8130), 10 mM stock in DMSO • 96-well Clear Plate (Costar, Catalog #92592) • Plate Reader (Model: SpectraMax Plus by Molecular Devices) or equivalent Assay: 1. Dilute rhGlyoxalase II to 0.4 ng/μL in Assay Buffer. 2. Dilute Substrate to 2 mM in Assay Buffer with 400 IJM DTNB to form Substrate Mixture. 3. Load 50 μL of 0.4 ng/μL rhGlyoxalase II into a plate and start the reaction by loading 50 μL of Substrate Mixture. Include a Substrate Blank containing 50 μL of Assay Buffer and 50 μL of Substrate Mixture. 4. Read at 405 nm (absorbance) in kinetic mode for 5 minutes. 5. Calculate specific activity:
[formula] [formula] [formula] [formula] Note: the output of many spectrophotometers is in mOD. Final Assay Conditions Per Well: rhGlyoxalase II: […] S-Lactoylglutathione: 1 mM DTNB: 200 μM

E. coli IR60 (NDM-1) = assay: Meropenem MIC with and without inhibitor; assay type: cell-based, Escherichia coli
Description: (§1) Further studies were carried out to determine if ML302F/ML302 potentiates β-lactam antibiotic activity in clinically derived strains containing IMP-1, IMP-4, VIM-4 or NDM-1, which are the most commonly observed MBLs in clinical isolates. All strains producing MBLs were confirmed as resistant to meropenem at the Clinical and Laboratory Standards Institute (U.S.A.) defined breakpoint of 8 μg/mL for Enterobacteriace (see Table 2 below). The minimum inhibitory concentration (MIC) of meropenem against wildtype and MBL producing Escherichia coli and Klebsiella pneumoniae strains was determined with and without increasing concentrations of ML302 or ML302F. Clinical and Laboratory Standards Institute. 2012. Methods for dilution antimicrobial susceptibility tests for bacteria that grow aerobically; 9th ed. Approved standard M07-A9. CLSI, Wayne, Pa.; and Clinical and Laboratory Standards Institute. 2012. Performance standards for antimicrobial susceptibility testing; 22nd informational supplement M100-S22. CLSI, Wayne, Pa.

E. coli MG1655 (IMP-1) = assay: Meropenem MIC with and without inhibitor; assay type: cell-based, Escherichia coli; conditions: for Meropenem MIC in the presence of inhibitor: E. coli MG1655 (IMP-1)
Description: as §1

[1] = system: K. pneumoniae A34 (VIM-4); assay: Meropenem MIC with and without inhibitor; assay type: cell-based, Klebsiella pneumoniae
Description: as §1

[2] = system: K. pneumoniae B19 (IMP-4); assay: Meropenem MIC with and without inhibitor; assay type: cell-based, Klebsiella pneumoniae
Description: as §1

[3] = system: K. pneumoniae NCTC 5055 (IMP-1); assay: Meropenem MIC with and without inhibitor; assay type: cell-based, Klebsiella pneumoniae; conditions: for Meropenem MIC in the presence of inhibitor: K. pneumoniae NCTC 5055 (IMP-1)
Description: as §1

VIM-1 = molecular target: T2, VIM-1 (Pseudomonas aeruginosa, UniProt A0A0F7KYQ8); assay: MBL screening assay (IC50), VIM-1; assay type: biochemical
T2 construct: made in house; host or cells: Escherichia coli
Description: Recombinant forms of NDM-1, NDM-1 M67C, VIM-1, VIM-2, SPM-1, IMP-1 and BcII MBLs were produced in Escherichia coli as described in J. Med. Chem. 56, 6945-6953 (2013) and Makena et al Chem MechCHem 8, 1923-9 (2013). Purified VIM-2 protein was dialysed into fresh crystallization buffer (50 mM HEPES pH 7.5, 150 mM NaCl and […], concentrated to 7.5 mg/mL and used for crystallographic analyses.
Kinetic and inhibition analyses and UV-VIS studies^16 against bacterial MBLs were performed as described by Van Berkel et al in J. Med. Chem. 56, 6945-6953 (2013) and Makena et al Chem MechCHem 8, 1923-9 (2013).
The experiments were performed by using a NovaStar microplate reader (using path length correction) and were performed at r.t. (24-25° C.). All enzymes and substrates were dissolved in the assay buffer: 50 mM HEPES-NaOH buffer (pH 7.2) supplemented with 1 μg/mL BSA (to minimize the denaturation of the enzyme), 1 μM ZnSO4 and 0.01% Triton 100. Screening was carried out against a panel of MBLs including NDM-1, VIM-1, VIM-2, SPM-1 (Sao Paulo MBL-1) and IMP-1 and the non-clinically relevant model MBL Bacillus cereus (BcII).
The kinetic values determined were the means from at least three independent measurements. […] The IC50 values were determined from the plot of activity (steady state rate) versus inhibitor concentration using the same software. […]

[4] = Klebsiella pneumoniae, read-out: Meropenem MIC in the absence of inhibitor

| SMILES | Inhibition verdict (hGlyoxylase II) | RA (residual activity) (hGlyoxylase II) [%] | Meropenem MIC in the presence of inhibitor (E. coli IR60 (NDM-1); inhibitor 10 mg/L) [µg/mL] | Meropenem MIC in the presence of inhibitor (E. coli IR60 (NDM-1); inhibitor 25 mg/L) [µg/mL] | Meropenem MIC in the presence of inhibitor (E. coli IR60 (NDM-1); inhibitor 50 mg/L) [µg/mL] | Meropenem MIC in the presence of inhibitor (E. coli IR60 (NDM-1); inhibitor 100 mg/L) [µg/mL] | Meropenem MIC in the presence of inhibitor (E. coli MG1655 (IMP-1); inhibitor 10 mg/L) [µg/mL] | Meropenem MIC in the presence of inhibitor (E. coli MG1655 (IMP-1); inhibitor 25 mg/L) [µg/mL] | Meropenem MIC in the presence of inhibitor (E. coli MG1655 (IMP-1); inhibitor 50 mg/L) [µg/mL] | Meropenem MIC in the presence of inhibitor (E. coli MG1655 (IMP-1); inhibitor 100 mg/L) [µg/mL] | Meropenem MIC in the presence of inhibitor ([1]; inhibitor 10 mg/L) [µg/mL] | Meropenem MIC in the presence of inhibitor ([1]; inhibitor 25 mg/L) [µg/mL] | Meropenem MIC in the presence of inhibitor ([1]; inhibitor 50 mg/L) [µg/mL] | Meropenem MIC in the presence of inhibitor ([1]; inhibitor 100 mg/L) [µg/mL] | Meropenem MIC in the presence of inhibitor ([2]; inhibitor 10 mg/L) [µg/mL] | Meropenem MIC in the presence of inhibitor ([2]; inhibitor 25 mg/L) [µg/mL] | Meropenem MIC in the presence of inhibitor ([2]; inhibitor 50 mg/L) [µg/mL] | Meropenem MIC in the presence of inhibitor ([3]; inhibitor 10 mg/L) [µg/mL] | Meropenem MIC in the presence of inhibitor ([3]; inhibitor 25 mg/L) [µg/mL] | Meropenem MIC in the presence of inhibitor ([3]; inhibitor 50 mg/L) [µg/mL] | also measured |
| --- | --- | --- | --- | --- | --- | --- | --- | --- | --- | --- | --- | --- | --- | --- | --- | --- | --- | --- | --- | --- | --- |
| CN1CCN(NC(=O)CN2C(=O)C(=Cc3c(Cl)ccc(Cl)c3Cl)SC2=S)CC1 (mixture of isomers) [ML302, N-(4-Methylpiperazin-1-yl)-2-(4-oxo-2-thioxo-5-(2,3,6-trichlorobenzylidene)thiazolidin-3-yl)acetamide] | N.I. | 98 ± 3 | 8 | 8 | 4 | 2 | 0.5 | ≤ 0.25 | ≤ 0.25 | ≤ 0.25 | 32 | 8 | 4 | 4 | 0.5 | ≤ 0.25 | ≤ 0.25 | ≤ 0.25 | ≤ 0.25 | ≤ 0.25 | IC50 (VIM-1): 660 ± 250 nM |
| O=C(O)C(S)=Cc1c(Cl)ccc(Cl)c1Cl (racemic) [ML302F, 2-Mercapto-3-(2,3,6-trichlorophenyl)acrylic acid] | N.I. | 95 ± 6 | 16 | 16 | 8 | 8 | 4 | 4 | 2 | 0.5 | 64 | 32 | 32 | 16 | 2 | 1 | 0.5 | 4 | 0.5 | 0.5 | IC50 (VIM-1): 440 ± 190 nM |
| C[C@@H](O)[C@H]1C(=O)N2C(C(=O)O)=C(S[C@@H]3CN[C@H](C(=O)N(C)C)C3)[C@H](C)[C@H]12 [Meropenem, meropenem] | – | – | – | – | – | – | – | – | – | – | – | – | – | – | – | – | – | – | – | – | MIC (E. coli IR60 (NDM-1); Escherichia coli, read-out: Meropenem MIC in the absence of inhibitor): 16 µg/mL; MIC (E. coli MG1655 (IMP-1); Escherichia coli, MG1655, read-out: Meropenem MIC in the absence of inhibitor): 32 µg/mL; MIC [1, 4]: 128 µg/mL; MIC [2, 4]: 16 µg/mL; MIC ([3]; Klebsiella pneumoniae, NCTC5055, read-out: Meropenem MIC in the absence of inhibitor): 32 µg/mL |
